Reference: patent publication US8759334B2, “Compounds useful for the treatment of metabolic and inflammatory diseases” (Galapagos NV, priority 2011, dated 2014)

Assays:
Type in all cases: cell-based
GPR43 [1] = target: T1, GPR43 (Homo sapiens, UniProt O15552); test: Calcium mobilization assay without probenecid; details: GPR43 stably expressing cells, triggered with sodium acetate at EC80, read-out: GPR43 assay without probenicid IC50
T1 construct: expressed in transfected cells
T1 sequence (O15552 1-330): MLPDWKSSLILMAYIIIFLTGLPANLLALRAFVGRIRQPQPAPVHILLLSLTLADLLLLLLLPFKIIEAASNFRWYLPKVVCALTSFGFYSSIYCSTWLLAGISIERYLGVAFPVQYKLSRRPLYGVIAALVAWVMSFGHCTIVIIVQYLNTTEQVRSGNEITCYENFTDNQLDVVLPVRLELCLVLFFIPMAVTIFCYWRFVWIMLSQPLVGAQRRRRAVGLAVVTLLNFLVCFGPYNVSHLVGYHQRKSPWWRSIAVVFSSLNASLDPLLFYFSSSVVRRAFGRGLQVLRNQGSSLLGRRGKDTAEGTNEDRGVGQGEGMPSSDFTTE
In short: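 In GPR43-expressing cells loaded with a Calcium 4 dye, antagonism was tested by a 15 min compound preincubation at 37 °C, then a sodium acetate challenge at EC80, with Ca-flux read on injection. For agonism, Ca-flux was recorded directly on compound injection.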

GPR43 [2] = target: T1, GPR43; test: Calcium mobilization assay with probenecid; details: GPR43 stably expressing cells; triggered with sodium acetate at EC80; 2.5 mM probenecid; read-out: GPR43 assay with probenicid IC50
In short: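 […] being added at rising concentrations to a GPR43 stable line. Before this, cells were dye-loaded (Calcium 4 with 2.5 mM probenecid) for 2 h at 37 °C after overnight plating.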

human neutrophils = test: Neutrophil migration assay; details: neutrophils from human buffy coat, migration towards sodium acetate, read-out: human neutrophil migration inhibition EC50
Protocol: G Protein-Coupled Receptor 43 (GPR43) was described as an essential player in the process of neutrophil recruitment during intestinal inflammation.
The effect of agonists or antagonists for GPR43 can therefore be assayed in a neutrophil migration test. In the neutrophil migration assay, neutrophils, isolated from buffy coats from human volunteers, are treated with a compound for 30 minutes. Subsequently, the neutrophils are transferred to the upper wells of a Corning HTS transwell 96 permeable support system, of which the lower wells are filled with a sodium acetate solution.
The ACD buffer consists of 140 mM citric acid, 200 mM sodium citrate and 220 mM dextrose. The 6% dextran/0.9% NaCl solution consists of 15 g dextran T2000 and 2.25 g NaCl dissolved in 250 mL H2O.
A human buffy coat is diluted with an equal volume of ice cold DPBS. 20 mL of the diluted buffy coat is gently mixed with 4 mL of ACD buffer. Then, 12 mL of the 6% dextran/0.9% NaCl solution is added to the mixture and the samples are inverted gently up to 20 times. The total volume is transferred to a new recipient and incubated at room temperature for 1 h for complete separation of the two phases to occur. The yellowish supernatant is then transferred to a clean centrifugation tube and centrifuged for 12 minutes at 1300 rpm and 4° C. After centrifugation, the supernatant is discarded and the remaining cell pellet is rapidly resuspended in 12 mL of ice-cold H2O for red blood cell lysis to occur. After 20 seconds, 4 mL of ice-cold 0.6 M KCl is added. Samples are mixed carefully and centrifuged for 6 minutes at 1300 rpm, 4° C. The supernatant is discarded and the red blood cell lysis procedure is repeated one more time. […] After centrifugation for 12 min at 1300 rpm, 4° C., the supernatant is removed and the cell pellet, containing the neutrophils, is resuspended in 25 mL chemotaxis buffer.
A cell suspension of 8.9×10^6 cells per milliliter is prepared. 20 μL of compound solution in chemotaxis buffer is added to 180 μl cell suspension. The mixture is incubated at 37° C. for 30 minutes with Intermediate resuspension of the cells after 15 minutes. […] The receiver well of the transwell system is then filled with 200 μL chemotaxis buffer containing compound and chemotactic agent (sodium acetate). After incubation at 37° C. in 5% CO2 for 1 h, the upper plate of the transwell system is removed and the cell suspension in the receiver plate is transferred to a 96-well V-bottom plate. 50 μL of DPBS is added to the receiver plate to prevent remaining cells from drying out. The V-bottom plate is centrifuged for 6 minutes at 1500 rpm. The supernatant is removed and the cells are resuspended in 50 μL DPBS. The cells are then transferred back to the receiver plate of the transwell system. […] The plate is incubated for 10 minutes in the dark, while shaking. 170 μL of cell lysate is then transferred to a white 96-well plate and luminescence is measured. The detected luminescent signal is considered as linearly related to the number of migrated cells.

SMILES | IC50 (GPR43 [1]) [nM] | IC50 (GPR43 [2]) [nM] | EC50 (human neutrophils) [nM]
CC1(C(=O)N(CC(=O)O)Cc2ccc(Cl)cc2)CCN1C(=O)Cc1csc2ccccc12 (stereo not shown) [Compound 61, [[1-(2-Benzo[b]thiophen-3-yl-acetyl)-2-methyl-azetidine-2-carbonyl]-(4-chloro-benzyl)-amino]-acetic acid] | 0.01 to 100 | 0.01 to 100 | 0.01 to 100
CC1(C(=O)N(CCCC(=O)O)Cc2ccc(Cl)cc2)CCN1C(=O)Cc1csc2ccccc12 (stereo not shown) [Compound 89, 4-[[1-(2-Benzo[b]thiophen-3-yl-acetyl)-2-methyl-azetidine-2-carbonyl]-(4-chloro-benzyl)-amino]-butyric acid] | 0.01 to 100 | 0.01 to 100 | 0.01 to 100
Cc1cc(C)cc(CC(=O)N2CCC2(C)C(=O)N(CCCC(N)=O)Cc2ccc(Cl)cc2)c1 (stereo not shown) [Compound 90, 1-[2-(3,5-Dimethyl-phenyl)-acetyl]-2-methyl-azetidine-2-carboxylic acid (3-carbamoyl-propyl)-(4-chloro-benzyl)-amide] | 0.01 to 100 | 101 to 500 | 0.01 to 100
Cc1cc(C)cc(CC(=O)N2CCC2(C)C(=O)N(CC(=O)NS(=O)(=O)C(F)(F)F)Cc2ccc(Cl)cc2)c1 (stereo not shown) [Compound 94, 1-[2-(3,5-Dimethyl-phenyl)-acetyl]-2-methyl-azetidine-2-carboxylic acid (4-chloro-benzyl)-(2-oxo-2-trifluoromethanesulfonylamino-ethyl)-amide] | > 1000 | > 1000 | –
Cc1cc(C)cc(CC(=O)N2CCC2(C)C(=O)N(CC(=O)NS(C)(=O)=O)Cc2ccc(Cl)cc2)c1 (stereo not shown) [Compound 95, 1-[2-(3,5-Dimethyl-phenyl)-acetyl]-2-methyl-azetidine-2-carboxylic acid (4-chloro-benzyl)-(2-methanesulfonylamino-2-oxo-ethyl)-amide] | 501 to 1000 | > 1000 | –
Cc1cc(C)cc(CC(=O)N2CCC2(C)C(=O)N(CCCC#N)Cc2ccc(Cl)cc2)c1 (stereo not shown) [Compound 97, 1-[2-(3,5-Dimethyl-phenyl)-acetyl]-2-methyl-azetidine-2-carboxylic acid (4-chloro-benzyl)-(3-cyano-propyl)-amide] | 101 to 500 | 501 to 1000 | –
CN(Cc1ccc(Cl)cc1)C(=O)C1(C)CCN1C(=O)c1csc2ccccc12 (stereo not shown) [Compound 98, 1-(Benzo[b]thiophene-3-carbonyl)-2-methyl-azetidine-2-carboxylic acid (4-chloro-benzyl)-methyl-amide] | 101 to 500 | 101 to 500 | –
CC1(C(=O)N(CCCc2nnn[nH]2)Cc2ccc(Cl)cc2)CCN1C(=O)Cc1csc2ccccc12 (stereo not shown) [Compound 100, 1-(2-Benzo[b]thiophen-3-yl-acetyl)-2-methyl-azetidine-2-carboxylic acid (4-chloro-benzyl)-[3-(1H-tetrazol-5-yl)-propyl]-amide] | 0.01 to 100 | 0.01 to 100 | –
CC(=O)NCCN(Cc1ccc(Cl)cc1)C(=O)C1(C)CCN1C(=O)Cc1cc(C)cc(C)c1 (stereo not shown) [Compound 101, 1-[2-(3,5-Dimethyl-phenyl)-acetyl]-2-methyl-azetidine-2-carboxylic acid (2-acetylamino-ethyl)-(4-chloro-benzyl)-amide] | 101 to 500 | 101 to 500 | –
Cc1cc(C)cc(CC(=O)N2CCC2(C)C(=O)N(CCNS(C)(=O)=O)Cc2ccc(Cl)cc2)c1 (stereo not shown) [Compound 102, 1-[2-(3,5-Dimethyl-phenyl)-acetyl]-2-methyl-azetidine-2-carboxylic acid (4-chloro-benzyl)-(2-methanesulfonylamino-ethyl)-amide] | 501 to 1000 | 101 to 500 | –
CC1(C(=O)N(CCCC(=O)O)Cc2ccc(Cl)cc2)CCN1C(=O)Cc1coc2ccccc12 (stereo not shown) [Compound 103, 4-[[1-(2-Benzofuran-3-yl-acetyl)-2-methyl-azetidine-2-carbonyl]-(4-chloro-benzyl)-amino]-butyric acid] | – | 101 to 500 | 501 to 1000
Cc1cc(C)cc(CC(=O)N2CCC2(C)C(=O)N(CC(=O)O)Cc2ccc3cn[nH]c3c2)c1 (stereo not shown) [Compound 110, [{1-[2-(3,5-Dimethyl-phenyl)-acetyl]-2-methyl-azetidine-2-carbonyl}-(1H-indazol-6-ylmethyl)-amino]-acetic acid] | – | 101 to 500 | 101 to 500
Cc1cc(C)cc(CC(=O)N2CCC2(C)C(=O)N(Cc2ccc(Cl)cc2)Cc2cc(O)no2)c1 (stereo not shown) [Compound 132, 1-[2-(3,5-Dimethyl-phenyl)-acetyl]-2-methyl-azetidine-2-carboxylic acid (4-chloro-benzyl)-(3-hydroxy-isoxazol-5-ylmethyl)-amide] | – | 0.01 to 100 | 101 to 500

More lines, now with the values ahead:

IC50 (GPR43 [1]) [nM] | IC50 (GPR43 [2]) [nM] | EC50 (human neutrophils) [nM] | SMILES
– | 0.01 to 100 | 0.01 to 100 | Cc1cc(C)cc(CC(=O)N2CCC2(C)C(=O)N(CCCC(=O)O)Cc2ccc3cc[nH]c3c2)c1 (stereo not shown) [Compound 113, 4-[{1-[2-(3,5-Dimethyl-phenyl)-acetyl]-2-methyl-azetidine-2-carbonyl}-(1H-indol-6-ylmethyl)-amino]-butyric acid]
– | 101 to 500 | 101 to 500 | Cc1cc(C)cc(CC(=O)N2CCC2(C)C(=O)N(CCCC(=O)N2CCOCC2)Cc2ccc(Cl)cc2)c1 (stereo not shown) [Compound 122, 1-[2-(3,5-Dimethyl-phenyl)-acetyl]-2-methyl-azetidine-2-carboxylic acid (4-chloro-benzyl)-(4-morpholin-4-yl-4-oxo-butyl)-amide]
– | 101 to 500 | 0.01 to 100 | Cc1cc(C)cc(CC(=O)N2CCC2(C)C(=O)N(CCCC(=O)O)Cc2ccc3cn[nH]c3c2)c1 (stereo not shown) [Compound 123, 4-[{1-[2-(3,5-Dimethyl-phenyl)-acetyl]-2-methyl-azetidine-2-carbonyl}-(1H-indazol-6-ylmethyl)-amino]-butyric acid]
– | 0.01 to 100 | 101 to 500 | CC1(C(=O)N(CCCC(=O)O)Cc2ccc3cn[nH]c3c2)CCN1C(=O)Cc1csc2ccccc12 (stereo not shown) [Compound 130, 4-[[1-(2-Benzo[b]thiophen-3-yl-acetyl)-2-methyl-azetidine-2-carbonyl]-(1H-indazol-6-ylmethyl)-amino]-butyric acid]
– | 0.01 to 100 | 101 to 500 | CC1(C(=O)N(CCCC(=O)O)Cc2ccc3ccoc3c2)CCN1C(=O)Cc1csc2ccccc12 (stereo not shown) [Compound 131, 4-{[1-(2-Benzo[b]thiophen-3-yl-acetyl)-2-methyl-azetidine-2-carbonyl]-benzofuran-6-ylmethyl-amino}-butyric acid]
– | 0.01 to 100 | 0.01 to 100 | CC1(C(=O)N(CCCC(=O)O)Cc2ccc3cc[nH]c3c2)CCN1C(=O)Cc1coc2ccccc12 (stereo not shown) [Compound 137, 4-[[1-(2-Benzofuran-3-yl-acetyl)-2-methyl-azetidine-2-carbonyl]-(1H-indol-6-ylmethyl)-amino]-butyric acid]
– | 101 to 500 | 0.01 to 100 | CC1(C(=O)N(CCCC(=O)O)Cc2ccc3cn[nH]c3c2)CCN1C(=O)c1csc2ccccc12 (stereo not shown) [Compound 157, 4-[[1-(Benzo[b]thiophene-3-carbonyl)-2-methyl-azetidine-2-carbonyl]-(1H-indazol-6-ylmethyl)-amino]-butyric acid]
